Reference: patent publication US20130005747A1, “METHOD FOR SELECTING A CANCER THERAPY” (Cyclacel Limited, priority 2010, published 2013)

Key:
Assay in all cases: Fractional growth, 72 h seliciclib
Assay type in all cases: cell-based, human
[1] = test system: 786-O; conditions: 786-O (Kidney), 15 μM seliciclib
Source text: (§1) A total of 270 human cancer cell lines from diverse cancer histopathologic types were investigated.

[2] = test system: PCI-4B; conditions: PCI-4B (Head & Neck), 15 μM seliciclib
Source text: as §1

[3] = test system: WM-115; conditions: WM-115 (Skin), 15 μM seliciclib
Source text: as §1

[4] = test system: MGH-MC-1; conditions: MGH-MC-1 (Skin), 15 μM seliciclib
Source text: as §1

[5] = test system: GTL-16; conditions: GTL-16 (Stomach), 15 μM seliciclib
Source text: as §1

[6] = test system: HCC1395; conditions: HCC1395 (Breast), 15 μM seliciclib
Source text: as §1

[7] = test system: DBTRG-05MG; conditions: DBTRG-05MG (Brain), 15 μM seliciclib
Source text: as §1

[8] = test system: A2058; conditions: A2058 (Skin), 15 μM seliciclib
Source text: as §1

[9] = test system: DAN-G; conditions: DAN-G (Pancreas), 15 μM seliciclib
Source text: as §1

[10] = test system: RT112/84; conditions: RT112/84 (Bladder), 15 μM seliciclib
Source text: as §1

[11] = test system: HDQ-P1; conditions: HDQ-P1 (Breast), 15 μM seliciclib
Source text: as §1

[12] = test system: TCCSUP; conditions: TCCSUP (Bladder), 15 μM seliciclib
Source text: as §1

[13] = test system: 22RV1; conditions: 22RV1 (Prostate), 15 μM seliciclib
Source text: as §1

[14] = test system: PCI-38; conditions: PCI-38 (Head & Neck), 15 μM seliciclib
Source text: as §1

[15] = test system: NCI-H1573; conditions: NCI-H1573 (Lung: NSCLC), 15 μM seliciclib
Source text: as §1

[16] = test system: KMRC-1; conditions: KMRC-1 (Kidney), 15 μM seliciclib
Source text: as §1

[17] = test system: BPH-1; conditions: BPH-1 (Prostate), 15 μM seliciclib
Source text: as §1

[18] = test system: G-402; conditions: G-402 (Kidney), 15 μM seliciclib
Source text: as §1

[19] = test system: RERF-LC-Sq1; conditions: RERF-LC-Sq1 (Lung: NSCLC), 15 μM seliciclib
Source text: as §1

[20] = test system: KP-4; conditions: KP-4 (Pancreas), 15 μM seliciclib
Source text: as §1

[21] = test system: HSC-2; conditions: HSC-2 (Head & Neck), 15 μM seliciclib
Source text: as §1

[22] = test system: A431; conditions: A431 (Skin), 15 μM seliciclib
Source text: as §1

[23] = test system: IGROV-1; conditions: IGROV-1 (Ovary), 15 μM seliciclib
Source text: as §1

[24] = test system: WM 266-4; conditions: WM 266-4 (Skin), 15 μM seliciclib
Source text: as §1

[25] = test system: NCI-H1651; conditions: NCI-H1651 (Lung: NSCLC), 15 μM seliciclib
Source text: as §1

[26] = test system: AGS; conditions: AGS (Stomach), 15 μM seliciclib
Source text: as §1

[27] = test system: SW 156; conditions: SW 156 (Kidney), 15 μM seliciclib
Source text: as §1

[28] = test system: SHP-77; conditions: SHP-77 (Lung), 15 μM seliciclib
Source text: as §1

[29] = test system: COR-L23; conditions: COR-L23 (Lung: NSCLC), 15 μM seliciclib
Source text: as §1

[30] = test system: COLO-680N; conditions: COLO-680N (Esophagus), 15 μM seliciclib
Source text: as §1

[31] = test system: DK-MG; conditions: DK-MG (Brain), 15 μM seliciclib
Source text: as §1

[32] = test system: PFSK-1; conditions: PFSK-1 (Brain), 15 μM seliciclib
Source text: as §1

[33] = test system: BxPC-3; conditions: BxPC-3 (Pancreas), 15 μM seliciclib
Source text: as §1

[34] = test system: TOV-112D; conditions: TOV-112D (Ovary), 15 μM seliciclib
Source text: as §1

[35] = test system: GAMG; conditions: GAMG (Brain), 15 μM seliciclib
Source text: as §1

[36] = test system: NCI-H841; conditions: NCI-H841 (Lung), 15 μM seliciclib
Source text: as §1

[37] = test system: IGR-1; conditions: IGR-1 (Skin), 15 μM seliciclib
Source text: as §1

CC[C@H](CO)Nc1nc(NCc2ccccc2)c2ncn(C(C)C)c2n1 [seliciclib, roscovitine]
Fractional Growth [1]: 0.3998 | Fractional Growth [2]: 0.4686 | Fractional Growth [3]: 0.5068 | Fractional Growth [4]: 0.4543 | Fractional Growth [5]: 0.6482 | Fractional Growth [6]: 0.6999 | Fractional Growth [7]: 0.7139 | Fractional Growth [8]: 0.6341 | Fractional Growth [9]: 0.6841 | Fractional Growth [10]: 0.318 | Fractional Growth [11]: 0.8137 | Fractional Growth [12]: 0.6407 | Fractional Growth [13]: 0.7432 | Fractional Growth [14]: 0.3656 | Fractional Growth [15]: 0.5485 | Fractional Growth [16]: 0.554 | Fractional Growth [17]: 0.6039 | Fractional Growth [18]: 0.2708 | Fractional Growth [19]: 0.6428 | Fractional Growth [20]: 0.5607 | Fractional Growth [21]: 0.5464 | Fractional Growth [22]: 0.3116 | Fractional Growth [23]: 0.4776 | Fractional Growth [24]: 0.4972 | Fractional Growth [25]: 0.6289 | Fractional Growth [26]: 0.2157 | Fractional Growth [27]: 0.467 | Fractional Growth [28]: 0.617 | Fractional Growth [29]: 0.2341 | Fractional Growth [30]: 0.6838 | Fractional Growth [31]: 0.8572 | Fractional Growth [32]: 0.249 | Fractional Growth [33]: 0.671 | Fractional Growth [34]: 0.3156 | Fractional Growth [35]: 0.571 | Fractional Growth [36]: 0.7639 | Fractional Growth [37]: 0.5764
